{"source": "patent US20260216115A1", "about": "“TRETINOIN-CONTAINING COMPOSITION, PREPARATION METHOD AND USE THEREOF” (NANJING INDETEK LABORATORY CO., LTD., priority 2022, published 2026)", "key": {"[1]": {"assay": "Complex formation at different molar ratios, state at room temperature", "format": "physicochemical", "method": "Referring to the preparation process in 1.2.1, complexes were prepared using tretinoin and diethanolamine at different ratios (as shown in the table below).\nReferring to the preparation process in 1.2 in Example 1, diethanolamine was replaced with triethanolamine, and complexes were prepared using tretinoin and triethanolamine at different ratios (as shown in the table below)."}, "[2]": {"assay": "Water solubility/water dilution stability of tretinoin complexes", "format": "physicochemical", "conditions": "water added until the solution appeared turbid", "method": "Weighing was performed, and calculation was performed to obtain the limiting water content of the complexes."}, "[3]": {"conditions": "2020 edition of Chinese Pharmacopoeia (Part II); cited from earlier work"}, "[4]": {"assay": "Liquid nitrogen freezing test", "format": "physicochemical", "conditions": "frozen about 1 min in liquid nitrogen, rewarmed to room temperature (about 22° C.)", "method": "After freezing for about 1 min, the sample was taken out, yielding a reddish-brown transparent solid (hard and brittle). […] The experimental process was as follows: freezing with the spoon, fragmenting, and then melting"}, "[5]": {"assay": "Solubility of the complex in different medium systems (oily mediums)", "format": "physicochemical", "text": "6.1 Study on Solubility of the Tretinoin-Alcoholamine Compound Complex in Different Medium Systems"}, "[6]": {"assay": "Dynamic moisture sorption (DVS) with PLM before and after", "format": "physicochemical"}, "[7]": {"assay": "Anti-solvent addition test", "format": "physicochemical", "conditions": "room temperature, about 4 days", "method": "The corresponding volume of good solvent was added to an appropriate amount of 2 [DEA][RA] to obtain a clear solution. If there were two corresponding anti-solvents, the clear solution was divided into two parts. At room temperature (about 22° C.), the anti-solvent was slowly added to the clear solution with stirring until solid precipitation was observed (the maximum volume of anti-solvent added was 1.5 mL). If the solid precipitation was observed, the addition of anti-solvent was stopped. After about 4 days of stirring at room temperature, a clear solution was obtained or oiling-out phenomenon was observed, without solid form substance obtained."}, "[8]": {"assay": "Crystallization induction: cooling test", "format": "physicochemical", "conditions": "3 days", "method": "About 40 mg of 2 [DEA][RA] was dissolved in the respective solvent at 50° C., a clear solution was obtained and divided equally in 2 groups. After cooling according to the respective procedure, and equilibrating at low temperature for 3 days, no solid form substance was obtained."}, "[9]": {"assay": "Differential scanning calorimetry (DSC, mDSC)", "format": "physicochemical"}, "[10]": {"assay": "Compatibility of gel matrix and complex", "format": "physicochemical", "conditions": "0.17% (0.1% in terms of RA) added to the Carbopol 980 gel matrix"}, "[11]": {"conditions": "tretinoin-triethanolamine complexes, molar ratio TEA:RA 7:1 to 10:1"}, "[12]": {"conditions": "tretinoin-diethanolamine complexes, molar ratio [DEA]:[RA] 2:1 to 10:1"}}, "data": [{"smiles": "CC1=C(/C=C/C(C)=C/C=C/C(C)=C/C(=O)O)C(C)(C)CCC1.OCCN(CCO)CCO.OCCN(CCO)CCO.OCCN(CCO)CCO.OCCN(CCO)CCO.OCCN(CCO)CCO.OCCN(CCO)CCO.OCCN(CCO)CCO.OCCN(CCO)CCO.OCCN(CCO)CCO.OCCN(CCO)CCO", "note": "[10[TEA][RA]]", "values": [{"measurement": "State at room temperature", "setting": "[1]; [11]", "result": "Reddish-brown clear liquid"}]}, {"smiles": "CC1=C(/C=C/C(C)=C/C=C/C(C)=C/C(=O)O)C(C)(C)CCC1.OCCN(CCO)CCO.OCCN(CCO)CCO.OCCN(CCO)CCO.OCCN(CCO)CCO.OCCN(CCO)CCO.OCCN(CCO)CCO.OCCN(CCO)CCO.OCCN(CCO)CCO.OCCN(CCO)CCO", "note": "[9[TEA][RA]]", "values": [{"measurement": "State at room temperature", "setting": "[1]; [11]", "result": "Reddish-brown clear liquid"}]}, {"smiles": "CC1=C(/C=C/C(C)=C/C=C/C(C)=C/C(=O)O)C(C)(C)CCC1.OCCNCCO.OCCNCCO.OCCNCCO", "note": "[3[DEA][RA]]", "values": [{"measurement": "State at room temperature", "setting": "[1]; [12]", "result": "Reddish-brown clear liquid"}, {"measurement": "Maximum water content (water dilution stability)", "setting": "[2]", "result": 93.7, "unit": "%"}]}, {"smiles": "CC1=C(/C=C/C(C)=C/C=C/C(C)=C/C(=O)O)C(C)(C)CCC1.CC1=C(/C=C/C(C)=C/C=C/C(C)=C/C(=O)O)C(C)(C)CCC1.OCCNCCO.OCCNCCO.OCCNCCO.OCCNCCO.OCCNCCO", "note": "[2.5[DEA][RA]]", "values": [{"measurement": "State at room temperature", "setting": "[1]; [12]", "result": "Reddish-brown clear liquid"}, {"measurement": "Maximum water content (water dilution stability)", "setting": "[2]", "result": 92.5, "unit": "%"}]}, {"smiles": "CC1=C(/C=C/C(C)=C/C=C/C(C)=C/C(=O)O)C(C)(C)CCC1.OCCNCCO.OCCNCCO.OCCNCCO.OCCNCCO.OCCNCCO", "note": "[5[DEA][RA]]", "values": [{"measurement": "State at room temperature", "setting": "[1]; [12]", "result": "Reddish-brown clear liquid"}]}, {"smiles": "CC1=C(/C=C/C(C)=C/C=C/C(C)=C/C(=O)O)C(C)(C)CCC1.OCCNCCO.OCCNCCO.OCCNCCO.OCCNCCO.OCCNCCO.OCCNCCO", "note": "[6[DEA][RA]]", "values": [{"measurement": "State at room temperature", "setting": "[1]; [12]", "result": "Reddish-brown clear liquid"}]}, {"smiles": "CC1=C(/C=C/C(C)=C/C=C/C(C)=C/C(=O)O)C(C)(C)CCC1.OCCNCCO.OCCNCCO.OCCNCCO.OCCNCCO.OCCNCCO.OCCNCCO.OCCNCCO.OCCNCCO.OCCNCCO.OCCNCCO", "note": "[10[DEA][RA]]", "values": [{"measurement": "State at room temperature", "setting": "[1]; [12]", "result": "Reddish-brown clear liquid"}]}, {"smiles": "CC1=C(/C=C/C(C)=C/C=C/C(C)=C/C(=O)O)C(C)(C)CCC1", "note": "[tretinoin]", "values": [{"measurement": "Solubility in water", "setting": "[3]", "result": "extremely insoluble in water"}]}, {"smiles": "CC1=C(/C=C/C(C)=C/C=C/C(C)=C/C(=O)O)C(C)(C)CCC1.OCCNCCO.OCCNCCO.OCCNCCO.OCCNCCO.OCCNCCO.OCCNCCO.OCCNCCO", "note": "[7[DEA][RA]]", "values": [{"measurement": "State at room temperature", "setting": "[1]; [12]", "result": "Reddish-brown clear liquid"}]}, {"smiles": "CC1=C(/C=C/C(C)=C/C=C/C(C)=C/C(=O)O)C(C)(C)CCC1.OCCN(CCO)CCO.OCCN(CCO)CCO.OCCN(CCO)CCO.OCCN(CCO)CCO.OCCN(CCO)CCO.OCCN(CCO)CCO.OCCN(CCO)CCO.OCCN(CCO)CCO", "note": "[8[TEA][RA]]", "values": [{"measurement": "State at room temperature", "setting": "[1]; [11]", "result": "Reddish-brown clear liquid"}, {"measurement": "State at room temperature", "setting": "[1]; tretinoin-triethanolamine complexes, molar ratio TEA:RA 7:1 to 10:1, listed as 8 [TEA][RA]", "result": "reddish-brown transparent liquid"}]}, {"smiles": "CC1=C(/C=C/C(C)=C/C=C/C(C)=C/C(=O)O)C(C)(C)CCC1.OCCNCCO.OCCNCCO", "note": "[2[DEA][RA]]", "values": [{"measurement": "State at room temperature", "setting": "[1]; [12]", "result": "Reddish-brown clear liquid"}, {"measurement": "Maximum water content (water dilution stability)", "setting": "[2]", "result": 91.4, "unit": "%"}, {"measurement": "Liquid nitrogen freezing test result upon rewarming", "setting": "[4]", "result": "the sample melted immediately"}, {"measurement": "Solubility in oily medium", "setting": "[5]; Isopropyl myristate", "result": "Insoluble"}, {"measurement": "Solubility in oily medium", "setting": "[5]; Laurocapram", "result": "Insoluble"}, {"measurement": "Solubility in oily medium", "setting": "[5]; Medium-chain triglyceride", "result": "Insoluble"}, {"measurement": "Solubility in oily medium", "setting": "[5]; Soybean oil", "result": "Insoluble"}, {"measurement": "Hygroscopicity (DVS)", "setting": "[6]; 25° C., 0% RH-95% RH-0% RH", "result": "certain hygroscopic properties"}, {"measurement": "Crystalline particles by PLM before and after DVS", "setting": "[6]; room temperature", "result": "no crystalline particles"}, {"measurement": "Anti-solvent addition test results", "setting": "[7]; test-A, good solvent DMSO, anti-solvent ACN 1.5 mL", "result": "Clear"}, {"measurement": "Anti-solvent addition test results", "setting": "[7]; test-B1, good solvent n-propanol, anti-solvent ACN 1.5 mL", "result": "Clear"}, {"measurement": "Anti-solvent addition test results", "setting": "[7]; test-B2, good solvent n-propanol, anti-solvent n-heptane 1.5 mL", "result": "Clear"}, {"measurement": "Anti-solvent addition test results", "setting": "[7]; test-D1, good solvent THF, anti-solvent ACN 1.5 mL", "result": "Clear"}, {"measurement": "Anti-solvent addition test results", "setting": "[7]; test-E1, good solvent IPA, anti-solvent ACN 1.5 mL", "result": "Clear"}, {"measurement": "Cooling test results", "setting": "[8]; test-A1, n-propanol, 50° C.→5° C.", "result": "Clear"}, {"measurement": "Cooling test results", "setting": "[8]; test-A2, n-propanol, 50° C.→−20° C.", "result": "Clear"}, {"measurement": "Cooling test results", "setting": "[8]; test-C1, 1,4-dioxane, 50° C.→5° C.", "result": "Clear"}, {"measurement": "Cooling test results", "setting": "[8]; test-C2, 1,4-dioxane, 50° C.→−20° C., *melting immediately upon taking out", "result": "Frozen, yellow opaque*"}, {"measurement": "Cooling test results", "setting": "[8]; test-D1, DMSO, 50° C.→5° C.", "result": "Clear"}, {"measurement": "mDSC glass transition temperature", "setting": "[9]; −25° C. to 25° C.", "result": "no glass transition temperature is observed"}, {"measurement": "DSC exothermic or endothermic signals", "setting": "[9]; −25° C. to 40° C.", "result": "no exothermic or endothermic signals"}, {"measurement": "Compatibility of complex with gel matrix", "setting": "[10]", "result": "precipitation of yellow solids"}]}, {"smiles": "CC1=C(/C=C/C(C)=C/C=C/C(C)=C/C(=O)O)C(C)(C)CCC1.OCCNCCO.OCCNCCO.OCCNCCO.OCCNCCO", "note": "[4[DEA][RA]]", "values": [{"measurement": "State at room temperature", "setting": "[1]; [12]", "result": "Reddish-brown clear liquid"}, {"measurement": "Maximum water content (water dilution stability)", "setting": "[2]", "result": 94.1, "unit": "%"}]}, {"smiles": "CC1=C(/C=C/C(C)=C/C=C/C(C)=C/C(=O)O)C(C)(C)CCC1.OCCNCCO.OCCNCCO.OCCNCCO.OCCNCCO.OCCNCCO.OCCNCCO.OCCNCCO.OCCNCCO", "note": "[8[DEA][RA]]", "values": [{"measurement": "State at room temperature", "setting": "[1]; [12]", "result": "Reddish-brown clear liquid"}]}, {"smiles": "CC1=C(/C=C/C(C)=C/C=C/C(C)=C/C(=O)O)C(C)(C)CCC1.OCCNCCO.OCCNCCO.OCCNCCO.OCCNCCO.OCCNCCO.OCCNCCO.OCCNCCO.OCCNCCO.OCCNCCO", "note": "[9[DEA][RA]]", "values": [{"measurement": "State at room temperature", "setting": "[1]; [12]", "result": "Reddish-brown clear liquid"}]}]}
